# From PubChem BioAssay AID1645868 (Buhrlage Lab, Dana-Farber Cancer Institute and Novartis …, 2021)
# Active and inactive are the calls of the source.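 The calls were made as follows: active = maximal percent inhibition of the deubiquitinase OTUD3 of at least 30% across the tested doses; inactive = the rest.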
# Target: OTU domain-containing protein 3 (Homo sapiens) (UniProt Q5T2D3)
# Assay: Validation of screening hits, potency titration, in vitro enzymatic, OTU domain-containing protein 3 DUB inhibitors (AID 1645868)
# Conditions: purified OTUD3, ubiquitin-rhodamine cleavage fluorescence, 2 h
# Chain of OTU domain-containing protein 3 (Homo sapiens) (Q5T2D3 whole entry, looked up, the tested form may be a part): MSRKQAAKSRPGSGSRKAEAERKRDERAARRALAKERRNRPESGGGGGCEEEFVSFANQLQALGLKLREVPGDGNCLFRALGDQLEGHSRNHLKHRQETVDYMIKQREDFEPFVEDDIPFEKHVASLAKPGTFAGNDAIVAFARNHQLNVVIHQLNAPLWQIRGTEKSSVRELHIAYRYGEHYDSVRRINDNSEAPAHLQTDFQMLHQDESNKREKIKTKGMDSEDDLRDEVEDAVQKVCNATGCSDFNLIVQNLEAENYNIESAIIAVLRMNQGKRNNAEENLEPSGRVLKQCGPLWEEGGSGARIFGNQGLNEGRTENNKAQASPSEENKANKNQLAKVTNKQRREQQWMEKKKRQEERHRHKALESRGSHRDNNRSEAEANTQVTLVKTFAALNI
row,SMILES,IC50
1,Cc1ccc(C)c(S(=O)(=O)N2CCN(c3ccc4nnc(-c5ccco5)n4n3)CC2)c1,> 50 µM (inactive)
2,Cc1cccc(S(=O)(=O)N2CCc3nc4ccccc4n3CC2)c1,36.5 µM
3,COc1cc(OC)cc(C(=O)Nc2cnc(-c3ccccc3)nc2)c1,> 50 µM (inactive)
4,Cc1nc2sc(C(=O)Nc3ccccc3Br)c(N)c2c(C)c1C,15.5 µM
5,Cc1ccc(-n2nc(C)c3c2NC(=O)CC3C(=O)c2cc3ccccc3o2)cc1C (configuration not stated),> 50 µM (inactive)
6,CC(=O)c1sc(NC(=O)c2ccccc2-c2ccc(C(F)(F)F)cc2)nc1C,41.7 µM
7,CC(CCc1ccccc1)NC(=O)Cn1c(=O)c2cccn2c2ccccc21 (configuration not stated),33.5 µM
8,COc1ccc(OC)c(NC(=O)CSc2nc(C)nc3c2oc2ccccc23)c1,> 50 µM (inactive)
9,Cc1ccc2c(c1)c(=O)c(C(=O)c1ccccc1)cn2CC(=O)Nc1ccc2c(c1)OCCO2,14.2 µM
10,Cc1c(-c2nsc(NC(=O)c3ccc(Cl)cc3)n2)nnn1-c1ccccc1F,18.9 µM
11,O=C1CC(C(=O)Nc2ccccc2F)n2nc(-c3ccccc3)cc2N1 (configuration not stated),25.1 µM
12,CCC(C)c1ccc(O[C@@H]2O[C@@H]3COC(c4ccccc4)O[C@H]3[C@H](O)[C@H]2NC(C)=O)cc1 (some centres not stated),23.4 µM
13,O=C(Cn1cncc(-c2nc(-c3ccccc3)cs2)c1=O)NC1CCCC1,> 50 µM (inactive)
14,Cc1nc(-c2ccccn2)sc1C(=O)Nc1ccc(C#N)cc1,> 50 µM (inactive)
15,COc1ccc2cc1Oc1cc(ccc1OC)C(O)C13SSC4(C(=O)N1C)C(O)C1=COC=CC(OC2=O)C1N4C3=O (configuration not stated),> 50 µM (inactive)
16,CO/C1=C\C(C)=C/[C@@H](C)[C@@H](O)[C@@H](C)C/C(C)=C/C=C/[C@H](OC)[C@@H]([C@@H](C)[C@@H](O)[C@H](C)[C@@]2(O)C[C@@H](OC(=O)/C=C/C(N)=O)[C@H](C)[C@@H](C(C)C)O2)OC1=O,> 50 µM (inactive)
17,Cc1cccc(NC(=O)Cn2cnc(-c3noc(-c4ccccc4)n3)c2)c1C,2.42 µM
18,COc1ccc(NC(=O)Cn2cc(C(=O)c3ccc(C)cc3)c(=O)c3ccccc32)cc1,11.4 µM
19,CCOc1ccccc1NC(=O)Cn1c(=O)n(CCCC(=O)NCc2ccc(C)cc2)c(=O)c2sccc21,2.78 µM
20,Cc1ccc2cc(CCNC(=O)c3cccc(Br)c3)c(=O)[nH]c2c1,> 50 µM (inactive)
21,N#Cc1ccc(NC(=O)c2ccc(S(=O)(=O)N3CCCCC3)cc2)cc1,> 50 µM (inactive)
22,CCCCCC(O)c1c(O)cc2c(c1O)C(=O)c1c(O)cc(O)cc1C2=O (configuration not stated),> 50 µM (inactive)
23,O=C(OCc1ccc(Br)cc1)c1ccc2ccccc2n1,> 50 µM (inactive)

row,SMILES,IC50
1,Cc1ccc2c(c1C)NC(=O)[C@]21[C@@H]2C(=O)N(c3cc(Cl)ccc3Cl)C(=O)[C@@H]2[C@@H]2CCCN21,> 50 µM (inactive)
2,CC(NC(=O)c1ccccc1)c1nc2ccccc2n1CC(=O)Nc1ccc2c(c1)OCO2 (configuration not stated),3.53 µM
3,Cc1cn[nH]c1C1COCCN1C(=O)c1ccc2ncccc2c1 (configuration not stated),> 50 µM (inactive)
4,COc1ccc(CCNc2c(-c3ccccc3O)nc3cnccn23)cc1OC,> 50 µM (inactive)
5,CN1CCN(C(=O)c2cc(-c3ccn(CC4CC4)n3)n3ccccc23)CC1,> 50 µM (inactive)
6,CCS(=O)(=O)N1CCc2cc(C(=O)Nc3ccc4c(c3)OCCO4)ccc21,> 50 µM (inactive)
7,COc1cccc(/C=C/C(=O)Nc2ccc(C)c(Cl)c2)c1,45.5 µM
8,O=C(NCc1ccc(CN2CCCC2)cc1)c1cc2ccccc2[nH]c1=O,> 50 µM (inactive)
9,CCn1c(=O)c(=O)[nH]c2cc(C(=O)Nc3cccc(-c4csc(C)n4)c3)ccc21,> 50 µM (inactive)
10,COc1ccc(CNC(=O)c2ccccc2N2C(=O)N3CCc4c([nH]c5ccccc45)[C@@]3(C)C2=O)cc1,42.1 µM
11,Cc1ccc2c(c1)N=C(c1ccc([N+](=O)[O-])cc1)CO2,> 50 µM (inactive)
12,Clc1ccc(C[n+]2cc(-c3ccc(Cl)cc3)n3c2CCC3)cc1,> 50 µM (inactive)
13,Cc1c(S(=O)(=O)NC2CCCCNC2=O)sc2ccc(Cl)cc12 (configuration not stated),> 50 µM (inactive)
14,Cc1cccc(O)c1-c1nc2c(-c3nc4c(C(=O)O)cccc4o3)cccc2o1,> 50 µM (inactive)
15,COc1ccccc1-c1ccc(SCC(=O)Nc2ccc3c(c2)OCCO3)nn1,> 50 µM (inactive)
16,COc1ccc(O)c(C(=O)OCc2cc(=O)oc3ccc4ccccc4c23)c1,> 50 µM (inactive)
17,Cc1cc(=O)n(CC(=O)Nc2ccccc2F)c(Nc2ccc(F)cc2)n1,16.3 µM
18,C=C(NC(=O)C(=C)NC(=O)c1csc(C2=N[C@@H]3c4csc(n4)[C@H]4NC(=O)c5csc(n5)[C@H]([C@](C)(O)[C@@H](C)O)NC(=O)[C@H]5CSC(=N5)/C(=C/C)NC(=O)C([C@@H](C)O)NC(=O)c5csc(n5)C3(CC2)NC(=O)[C@H](C)NC(=O)C(=C)NC(=O)[C@H](C)NC(=O)C([C@@H](C)CC)N[C@@H]2C=Cc3c(C(C)O)cc(nc3[C@H]2O)C(=O)OC4C)n1)C(N)=O (some centres not stated),> 50 µM (inactive)
19,COc1cc2c(=O)n(CCC(=O)NCc3ccco3)c(=O)n(CC(=O)Nc3c(C)cccc3C)c2cc1OC,> 50 µM (inactive)
20,Cc1ccc(CNC(=O)CCCn2c(=O)c3sccc3n(CC(=O)Nc3cc(Cl)ccc3C)c2=O)cc1,9.57 µM
21,C=C1CCC2[C@](C)(CCC[C@]2(C)C(=O)OC)[C@H]1CCc1ccoc1/C=C/C(=O)O (some centres not stated),> 50 µM (inactive)
22,CCOc1ccc(NC(=O)Cn2c(=O)n(CCCCCC(=O)NCc3ccc(F)cc3)c(=O)c3sccc32)cc1,2.67 µM
23,COc1cc(Cl)ccc1C(=O)Nc1cccc(-n2cnnn2)c1C,16.3 µM

row,SMILES,IC50
1,COc1cc(N)c(Cl)cc1C(=O)OCC(=O)c1ccc2c(c1)OCCO2,> 50 µM (inactive)
2,O=C(Oc1ccc(-c2cnc3ccccc3n2)cc1)c1ccc(F)cc1,> 50 µM (inactive)
3,COc1ccc(-c2cc(-c3nnc4n3CCCCC4)n(-c3ccccc3)n2)cc1,> 50 µM (inactive)
4,CC1CCN(C(=O)c2cn(-c3cc(N4CCC(C)CC4)ncn3)cn2)CC1,> 50 µM (inactive)
5,Cc1nn(-c2nc3ccccc3[nH]2)c2c1C(c1cccs1)CC(=O)N2 (configuration not stated),> 50 µM (inactive)
6,Cc1sc2ncn3c(=O)n(CC(=O)Nc4ccc(F)c(Cl)c4)nc3c2c1C,> 50 µM (inactive)
7,CC(C(=O)NCc1ccc2c(c1)OCO2)N1CCN(c2ccc(O)cc2)CC1 (configuration not stated),> 50 µM (inactive)
8,O=C(O)c1nccnc1C(=O)N1CCc2ccccc2C1,> 50 µM (inactive)
9,C=Cc1ccc(Cn2cc(S(=O)(=O)N3CCOCC3)ccc2=O)cc1,> 50 µM (inactive)
10,Cc1cccc(NC(=O)CSc2nnc(-c3n[nH]c4c3CCC4)n2N)c1C,17.9 µM
11,Cc1cc(=O)n(CC(=O)NCc2ccccc2F)c2c1c(C)nn2-c1ccccc1,28.6 µM
12,CCn1ccc2c(cc(C(=O)Nc3cccc(OC)c3)n2C)c1=O,> 50 µM (inactive)
13,COc1ccc2ncc3c(-c4ccc(C)cc4)nn(-c4ccc(F)cc4)c3c2c1,> 50 µM (inactive)
14,CN(C)c1cccc(C(=O)Nc2cc(-c3cccnc3)no2)c1,35.8 µM
15,COc1cccc(-n2nnc(C(=O)Nc3ccc(C)c(C)c3)c2C)c1,> 50 µM (inactive)
16,COc1ccc(OC)c(-n2c(SCC(=O)N3CCc4ccccc43)nnc2-c2cccc(S(=O)(=O)N(C)C)c2)c1,> 50 µM (inactive)
17,CCOc1ccc(NS(=O)(=O)c2ccc(NC(=O)Nc3ccccc3)cc2)cc1,37.2 µM
18,CCc1nc(N2CCCC2=O)sc1C(=O)Nc1cccc(C(C)=O)c1,> 50 µM (inactive)
19,CCc1ccc(C(C)NC(=O)C2CCN(c3ccc4nncn4n3)CC2)cc1 (configuration not stated),> 50 µM (inactive)
20,N#Cc1cccnc1N1CCN(C(=O)Nc2cccc3ccccc23)CC1,> 50 µM (inactive)
21,O=C(Nc1ccc2c(c1)OCCO2)Nc1nnc(CC(=O)N2CCCCC2)s1,> 50 µM (inactive)
22,Cc1cc2c(cc1C)NC(CC(=O)Nc1ccc(O)cc1)C(=O)N2 (configuration not stated),30.8 µM
23,COc1cccc(CCNC(=O)CCn2c(=O)c(C)nc3cc(C)c(C)cc32)c1,> 50 µM (inactive)

row,SMILES,IC50
1,O=C(COC(=O)c1cc(Cl)ccc1O)Nc1ccc2c(c1)OCCO2,37.1 µM
2,O=C(COC(=O)C1CCCN1C(=O)C12CC3CC(CC(C3)C1)C2)c1ccc(Cl)cc1 (configuration not stated),> 50 µM (inactive)
3,COc1cc2c(c3oc4cccc(O)c4c(=O)c13)C1C=COC1O2 (configuration not stated),> 50 µM (inactive)
4,COc1ccc(C(=O)Nc2cc(-c3ccccn3)no2)cn1,> 50 µM (inactive)
5,Cc1cc2nc(Oc3cccc(Cl)c3)c3ccccc3n2n1,> 50 µM (inactive)
6,O=C(Nc1ccccc1)c1nc2c(s1)CCN(C(=O)c1ccccc1)CC2,> 50 µM (inactive)
7,O=C(CSc1nc2cc(C(F)(F)F)ccc2s1)NCC(=O)c1ccccc1,22 µM
8,O=C(O)C1CCN(Cc2c(-c3ccco3)nc3ccc(Cl)cn23)CC1,> 50 µM (inactive)
9,Oc1cc(OCc2cccc(C(F)(F)F)c2)ccc1-c1ccn[nH]1,45 µM
10,COc1cc(-c2ccno2)ccc1S(=O)(=O)Nc1ccccc1Cl,> 50 µM (inactive)
11,Cc1ccc(Cl)cc1NC(=O)c1cc(-c2ccccn2)n[nH]1,24.5 µM
12,COc1ccc(-c2cc(-c3ccc(O)cc3)nc(N)c2C#N)cc1OC,> 50 µM (inactive)
13,O=c1c(S(=O)(=O)c2cc(F)cc(F)c2)c[nH]c2cc(Cl)ccc12,40.1 µM
14,CC(c1ccccc1)n1c(-c2ccc(F)cc2)nc2c(c(=O)c3ccccc3n2C)c1=O (configuration not stated),4.65 µM
15,Nc1c(-c2nc(-c3ccc4c(c3)OCO4)cs2)nnn1-c1ccccc1,> 50 µM (inactive)
16,COc1ccc(C(=O)Nc2sc3c(c2C(=O)NCc2cccnc2)CCCC3)cc1,> 50 µM (inactive)
17,CCOC(=O)c1ccc(NC(=O)C[n+]2cc(-c3ccc(Cl)cc3)n3c2CCC3)cc1,> 50 µM (inactive)
18,O=C(CNC(=O)c1cccc(F)c1)Nc1nc2ccccc2[nH]1,35.4 µM
19,Cc1ccc(C(=O)c2cn(CC(=O)Nc3ccccc3)c3ccc(C)cc3c2=O)cc1,21.1 µM
20,Cn1c(=O)/c(=C/c2ccccc2)[nH]c(=O)/c1=C/c1ccccc1,22.4 µM
21,COc1ccc(N(CC(=O)Nc2cccc(F)c2)S(=O)(=O)c2ccc(OC)c(OC)c2)cc1,22.4 µM
22,Cc1c(-c2nnc(-c3ccccn3)o2)nnn1-c1cccc(Cl)c1,48.5 µM
23,CCOc1ccc(-c2cc3nc(C4CCN(C(=O)OC(C)(C)C)CC4)c(C(=O)Nc4cc(F)ccc4F)cn3n2)cc1,> 50 µM (inactive)
